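Step 1: Grow cells in 96-well plates. Step 2: Expose to compound for 48 hours at 5 concentrations. Step 3: Interpolate endpoints linearly; if unreached, use highest concentration. GI50 marks 50% less growth. TGI is the concentration that stops growth completely.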
Assays:
Assay in all cases: NCI tumour cell line growth inhibition, 48 h
K-562 leukemia = system: K-562 leukemia
NCI-H522 lung = system: NCI-H522 lung
ACHN renal = system: ACHN renal
MALME-3M melanoma = system: MALME-3M melanoma
U251 CNS = system: U251 CNS
NCI-H460 lung = system: NCI-H460 lung
A498 renal = system: A498 renal
OVCAR-4 ovarian = system: OVCAR-4 ovarian
SK-OV-3 ovarian = system: SK-OV-3 ovarian
OVCAR-8 ovarian = system: OVCAR-8 ovarian
SK-MEL-28 melanoma = system: SK-MEL-28 melanoma
KM12 colon = system: KM12 colon
SN12C renal = system: SN12C renal
HS 578T breast = system: HS 578T breast
NCI/ADR-RES ovarian = system: NCI/ADR-RES ovarian
NCI-H226 lung = system: NCI-H226 lung
MCF7 breast = system: MCF7 breast
COLO 205 colon = system: COLO 205 colon
MDA-MB-231 breast = system: MDA-MB-231 breast
HL-60(TB) leukemia = system: HL-60(TB) leukemia
SF-295 CNS = system: SF-295 CNS
RPMI-8226 leukemia = system: RPMI-8226 leukemia
SW-620 colon = system: SW-620 colon
SR leukemia = system: SR leukemia
SF-539 CNS = system: SF-539 CNS
MDA-MB-435 = system: MDA-MB-435
SNB-19 CNS = system: SNB-19 CNS
NCI-H23 lung = system: NCI-H23 lung
IGROV1 ovarian = system: IGROV1 ovarian
MOLT-4 leukemia = system: MOLT-4 leukemia
SK-MEL-2 melanoma = system: SK-MEL-2 melanoma
HOP-92 NSCLC = system: HOP-92 NSCLC
SK-MEL-5 melanoma = system: SK-MEL-5 melanoma
CCRF-CEM leukemia = system: CCRF-CEM leukemia
SF-268 CNS = system: SF-268 CNS
HOP-62 NSCLC = system: HOP-62 NSCLC
SNB-75 CNS = system: SNB-75 CNS
UACC-257 melanoma = system: UACC-257 melanoma
A549 NSCLC = system: A549 NSCLC
RXF 393 renal = system: RXF 393 renal
T-47D breast = system: T-47D breast
UO-31 renal = system: UO-31 renal
DU-145 prostate = system: DU-145 prostate
M14 melanoma = system: M14 melanoma
HCT-15 colon = system: HCT-15 colon
PC-3 prostate = system: PC-3 prostate
HCC-2998 colon = system: HCC-2998 colon
786-0 renal = system: 786-0 renal
UACC-62 melanoma = system: UACC-62 melanoma
HCT-116 colon = system: HCT-116 colon
CAKI-1 renal = system: CAKI-1 renal
HT29 colon = system: HT29 colon
BT-549 breast = system: BT-549 breast
EKVX NSCLC = system: EKVX NSCLC
OVCAR-5 ovarian = system: OVCAR-5 ovarian
LOX IMVI melanoma = system: LOX IMVI melanoma
TK-10 renal = system: TK-10 renal

For `Cc1cc2nc3c4cc(C#N)ccc4n(CCN(C)C)c3nc2cc1C`, the GI50 (K-562 leukemia) was 682 nM, the TGI (K-562 leukemia) was over 34100 nM and the GI50 (NCI-H522 lung) was 505 nM. It also gave a TGI (NCI-H522 lung) of 1960 nM, a GI50 (ACHN renal) of 324 nM and a TGI (ACHN renal) of 1480 nM. It also gave a GI50 (MALME-3M melanoma) of 1380 nM, a TGI (MALME-3M melanoma) of 3600 nM and a GI50 (U251 CNS) of 860 nM. It also gave a GI50 (NCI-H460 lung) of 416 nM, a TGI (NCI-H460 lung) of 2510 nM and a GI50 (A498 renal) of 1930 nM. It also gave a GI50 (OVCAR-4 ovarian) of 1650 nM, a TGI (OVCAR-4 ovarian) of 5730 nM and a GI50 (SK-OV-3 ovarian) of 919 nM. The TGI (SK-OV-3 ovarian) was 9980 nM, the GI50 (OVCAR-8 ovarian) was 584 nM and the TGI (OVCAR-8 ovarian) was 3920 nM. The GI50 (SK-MEL-28 melanoma) was 2270 nM, the GI50 (KM12 colon) was 1690 nM and the TGI (KM12 colon) was over 29700 nM. For the same compound, the GI50 (SN12C renal) was 770 nM, the TGI (SN12C renal) was over 20800 nM and the GI50 (HS 578T breast) was 1590 nM. The TGI (HS 578T breast) was over 21500 nM, the GI50 (NCI/ADR-RES ovarian) was 637 nM and the TGI (NCI/ADR-RES ovarian) was 7080 nM. It also gave a GI50 (NCI-H226 lung) of 1230 nM, a TGI (NCI-H226 lung) of 8430 nM and a GI50 (MCF7 breast) of 1200 nM. It also gave a TGI (MCF7 breast) of 6720 nM, a GI50 (COLO 205 colon) of 456 nM and a TGI (COLO 205 colon) of 1630 nM. It also gave a GI50 (MDA-MB-231 breast) of 1060 nM, a TGI (MDA-MB-231 breast) of over 20600 nM and a GI50 (HL-60(TB) leukemia) of 1160 nM. For the same compound, the TGI (HL-60(TB) leukemia) was 4370 nM, the GI50 (SF-295 CNS) was 932 nM and the TGI (SF-295 CNS) was over 22500 nM. The GI50 (RPMI-8226 leukemia) was 1100 nM, the TGI (RPMI-8226 leukemia) was 4610 nM and the GI50 (SW-620 colon) was 411 nM. For the same compound, the TGI (SW-620 colon) was 1970 nM, the GI50 (SR leukemia) was 362 nM and the TGI (SR leukemia) was 3590 nM. It also gave a GI50 (SF-539 CNS) of 966 nM, a GI50 (MDA-MB-435) of 1010 nM and a TGI (MDA-MB-435) of 3390 nM. The GI50 (SNB-19 CNS) was 978 nM, the TGI (SNB-19 CNS) was over 25200 nM and the GI50 (NCI-H23 lung) was 507 nM. The TGI (NCI-H23 lung) was 2370 nM, the GI50 (IGROV1 ovarian) was 1070 nM and the TGI (IGROV1 ovarian) was 5600 nM. It also gave a GI50 (MOLT-4 leukemia) of 429 nM, a TGI (MOLT-4 leukemia) of over 32600 nM and a GI50 (SK-MEL-2 melanoma) of 2180 nM. The TGI (SK-MEL-2 melanoma) was 6150 nM, the GI50 (HOP-92 NSCLC) was 634 nM and the TGI (HOP-92 NSCLC) was 4580 nM. It also gave a GI50 (SK-MEL-5 melanoma) of 1690 nM, a TGI (SK-MEL-5 melanoma) of 3510 nM and a GI50 (CCRF-CEM leukemia) of 1220 nM. The TGI (CCRF-CEM leukemia) was over 33800 nM, the GI50 (SF-268 CNS) was 1620 nM and the TGI (SF-268 CNS) was over 20700 nM. For the same compound, the GI50 (HOP-62 NSCLC) was 755 nM, the GI50 (SNB-75 CNS) was 951 nM and the TGI (SNB-75 CNS) was 2670 nM. It also gave a GI50 (UACC-257 melanoma) of 686 nM, a TGI (UACC-257 melanoma) of 2060 nM and a GI50 (A549 NSCLC) of 666 nM. The TGI (A549 NSCLC) was 3020 nM, the GI50 (RXF 393 renal) was 918 nM and the TGI (RXF 393 renal) was 2830 nM. For the same compound, the GI50 (T-47D breast) was 2300 nM, the GI50 (UO-31 renal) was 312 nM and the TGI (UO-31 renal) was 2240 nM. It also gave a GI50 (DU-145 prostate) of 1100 nM, a TGI (DU-145 prostate) of over 32700 nM and a GI50 (M14 melanoma) of 1360 nM. It also gave a TGI (M14 melanoma) of 3820 nM, a GI50 (HCT-15 colon) of 1010 nM and a TGI (HCT-15 colon) of 6170 nM. It also gave a GI50 (PC-3 prostate) of 1490 nM, a TGI (PC-3 prostate) of over 21100 nM and a GI50 (HCC-2998 colon) of 1030 nM. It also gave a TGI (HCC-2998 colon) of 2440 nM, a GI50 (786-0 renal) of 1340 nM and a TGI (786-0 renal) of over 20000 nM. It also gave a GI50 (UACC-62 melanoma) of 1400 nM, a TGI (UACC-62 melanoma) of 5210 nM and a GI50 (HCT-116 colon) of 429 nM. For the same compound, the TGI (HCT-116 colon) was 1760 nM, the GI50 (CAKI-1 renal) was 381 nM and the TGI (CAKI-1 renal) was 3420 nM. It also gave a GI50 (HT29 colon) of 546 nM, a TGI (HT29 colon) of 6800 nM and a GI50 (BT-549 breast) of 2400 nM. It also gave a GI50 (EKVX NSCLC) of 1710 nM, a TGI (EKVX NSCLC) of over 23800 nM and a GI50 (OVCAR-5 ovarian) of 1450 nM. For the same compound, the TGI (OVCAR-5 ovarian) was over 22600 nM, the GI50 (LOX IMVI melanoma) was 601 nM and the TGI (LOX IMVI melanoma) was 2800 nM. It also gave a GI50 (TK-10 renal) of 1980 nM and a TGI (TK-10 renal) of over 23200 nM.
